Results from US20260217674A1 (priority 2023, published 2026).
Like-named read-outs stand apart in the source and are kept apart here.

Legend:
[1] = biological target: acetylcholinesterase (AChE) (Homo sapiens, UniProt P22303); assay: biochemical; format: biochemical; conditions: for inhibition at 0.001 µM: read-out: % Inhibition (1 nM); for inhibition at 0.01 µM: read-out: % Inhibition (10 nM); for inhibition at 0.1 µM: read-out: % Inhibition (100 nM)
Experimental: A solution of each tested compound is prepared by dissolving the compound in DMSO at 1 mM stock solution and diluting with water to the following concentration 100 nM, 10 nM and 1 nM.
The procedure of MAK119 kit assay of Sigma Aldrich (colorimetric test) has been followed as described:
The Working Reagent (MAK119C) of the kit is prepared fresh and used within 30 minutes.
A solution B made with […] of water and […] of Calibrator (MAK119B of the kit) is distributed into separate wells of the 96-well plate. […] of the solution of the tested compound is added into wells and then […] of the solution A is added to all sample wells.
The plate was incubated at room temperature for 2 min and the initial absorbance at 412 nm (A412)ini was measured. After 10 min of incubation at room temperature the final measurement (A412)final.
The following calculation is then achieved: […] Inhibition was calculated by comparing the absorbance of the samples containing the tested compounds at 412 nm (A412) and of the absorbance of the negative and positive controls after 12 min of incubation.

VGLUT3^T8I/T8I mice = assay: Activity-based anorexia (ABA) model in hypocholinergic VGLUT3^T8I/T8I mice; format: in vivo; conditions: for percentage of mice weighing at least 75% of their baseline body weight: after 8 days
Source text: Self-starvation behaviors are modeled in the activity-based anorexia (ABA) test (Klenotich, S. J., Dulawa, 2012 Methods Mol Biol 829, 377-93). In this test, animals are housed in the presence of a running wheel. Access to food is progressively restricted over a period of 8 days. For these animal experiments, an hypocholinergic mouse model was used. The type 3 atypical vesicular transporter (VGLUT3) is expressed by all cholinergic striatal interneurons (El Mestikawy et al. 2011, Nat Rev Neurosci 12(4), 204-16).
In 2015, the El Mestikawy team discovered a p.T8I variant of VGLUT3 expressed in patients suffering from substance use disorder and from eating disorders (Sakae et al. Mol Psychiatry, 2015, 20(11), 1448-59). Mice expressing this variant (VGLUT3^T8I/T8I mice) have a reduced cholinergic tone in the striatum and are more vulnerable to self-starvation in the ABA model. In other terms, VGLUT3^T8I/T8I mice present the same main symptomology than anorexic patients and are considered to be a model of choice for anorexia.
The ABA model was performed as described by Klenotich and Dulawa (Klenotich, S. J., Dulawa, 2012 Methods Mol Biol 829, 377-93) and as previously reported (Favier, M., et al., J Clin Invest 130, 6616-6630 (2020)). For habituation, all mice were individually housed in cages with running wheels for 7 days with unrestricted access to food, water and running wheel. After the adaptation period, all mice were maintained in the same running wheel cages for 8 additional days. Access to food was progressively restricted, from 8 h (day 1) to 2 h (day 8) per day. Body weight and food intake were measured daily before and after food access, respectively. […]. Mice were treated daily 30 min before the start of food access, during both baseline and food restriction phases.

[2] = compound 1 nM, absorbance 412 nm, 12 min incubation
[3] = compound 10 nM, absorbance 412 nm, 12 min incubation
[4] = compound 100 nM, absorbance 412 nm, 12 min incubation

acetylcholinesterase (AChE), sequence (P22303 32-614): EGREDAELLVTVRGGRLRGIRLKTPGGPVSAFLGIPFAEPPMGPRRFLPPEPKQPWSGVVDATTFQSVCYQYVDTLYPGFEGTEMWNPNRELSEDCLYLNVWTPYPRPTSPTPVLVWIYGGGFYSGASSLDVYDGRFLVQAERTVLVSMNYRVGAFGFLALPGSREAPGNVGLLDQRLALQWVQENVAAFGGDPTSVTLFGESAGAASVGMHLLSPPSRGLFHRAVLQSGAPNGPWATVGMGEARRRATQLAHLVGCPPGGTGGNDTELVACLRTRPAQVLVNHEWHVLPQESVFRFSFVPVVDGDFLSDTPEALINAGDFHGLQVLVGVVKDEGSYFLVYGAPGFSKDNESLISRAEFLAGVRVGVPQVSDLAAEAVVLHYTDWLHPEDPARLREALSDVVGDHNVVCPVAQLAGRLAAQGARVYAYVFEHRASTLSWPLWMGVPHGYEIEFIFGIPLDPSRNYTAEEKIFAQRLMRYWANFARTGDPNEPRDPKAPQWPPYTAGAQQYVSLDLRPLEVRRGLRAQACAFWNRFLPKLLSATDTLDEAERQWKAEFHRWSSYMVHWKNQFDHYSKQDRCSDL

COc1ccc2c(c1)C=C/C(=C/Oc1cc3c(cc1OC)C(=O)C(CC1CCN(Cc4ccccc4)CC1)C3)N2C(C)C (centres unmarked) [Compound 56]
inhibition at 0.001 µM [1, 2]: 50%
inhibition at 0.01 µM [1, 3]: 75%
inhibition at 0.1 µM [1, 4]: 100%
percentage of mice weighing at least 75% of their baseline body weight (VGLUT3^T8I/T8I mice; 0.01 mg/kg daily i.p.): about 90%
percentage of mice weighing at least 75% of their baseline body weight (VGLUT3^T8I/T8I mice; 0.03 mg/kg daily i.p., FIG. 1(B)): 60%
efficiency in reducing the food restriction (food intake) (VGLUT3^T8I/T8I mice; donquine 0.01 mg/kg versus donepezil 0.03 mg/kg daily i.p., FIG. 1(C)): more efficient than donepezil at 0.03 mg/kg

COc1cc2c(cc1OCc1ccc3cccc(N)c3[n+]1C)CC(CC1CCN(Cc3ccccc3)CC1)C2=O (centres unmarked) [Compound 62]
inhibition at 0.01 µM [1, 3]: 100%
inhibition at 0.1 µM [1, 4]: 100%

COc1cc2c(cc1OCc1ccc3ccccc3[n+]1C(C)C)CC(CC1CCN(Cc3ccccc3)CC1)C2=O (centres unmarked) [Compound 76]
inhibition at 0.01 µM [1, 3]: 100%
inhibition at 0.1 µM [1, 4]: 100%

COc1cc2c(cc1OC[n+]1cccc3ccc(O)cc31)CC(CC1CCN(Cc3ccccc3)CC1)C2=O (centres unmarked) [Compound 57]
inhibition at 0.01 µM [1]: 100%
inhibition at 0.1 µM [1]: 100%

COc1cc2c(cc1OCc1cc[n+](C(C)C)c3ccccc13)CC(CC1CCN(Cc3ccccc3)CC1)C2=O (centres unmarked) [Compound 75]
% Inhibition (10 nM) [1, 3]: 100%
% Inhibition (100 nM) [1, 4]: 100%

COc1cc2c(cc1OCc1ccc3ccc[n+](C)c3c1)CC(CC1CCN(Cc3ccccc3)CC1)C2=O (centres unmarked) [Compound 64]
inhibition at 0.001 µM [1, 2]: 25%
inhibition at 0.01 µM [1, 3]: 100%
inhibition at 0.1 µM [1, 4]: 100%

COc1cc2c(cc1OC)C(=O)C(CC1CCN(Cc3ccccc3)CC1)C2 (centres unmarked) [Donepezil, donepezil, reference compound]
efficiency in reducing the number of mice losing weight until 75% of baseline bodyweight or less (VGLUT3^T8I/T8I mice; donepezil 0.03 mg/kg versus donquine 0.01 mg/kg daily i.p., FIG. 1(D)): less efficient

COc1cc2c(cc1OC[n+]1cccc3cccc(N)c31)CC(CC1CCN(Cc3ccccc3)CC1)C2=O (centres unmarked) [Compound 59]
inhibition at 0.01 µM [1, 3]: 100%
inhibition at 0.1 µM [1, 4]: 100%

COc1cc2c(cc1OCc1ccc3c(Cl)cc[n+](C)c3c1)CC(CC1CCN(Cc3ccccc3)CC1)C2=O (centres unmarked) [Compound 63]
inhibition at 0.001 µM [1]: 75%
inhibition at 0.01 µM [1]: 75%
inhibition at 0.1 µM [1]: 75%
